{"source": "patent US7588903B2", "about": "“Use of isogenic drug-resistant cell lines to determine the sequence of chemotherapeutic drug treatment” (priority 2003, dated 2009)", "key": {"[1]": {"tested_on": "MCF-7TAX cells", "format": "cell-based", "conditions": "for resistance factor (IC50 for MCF-7TAX cells divided by IC50 for MCF-7 cells): 24 h drug treatment, clonogenic assay", "description": "(§1) Twice weekly, nonadherent (dead) cells were removed by discarding the existing medium and replacing it with fresh, drug-containing medium. […] At the end of the two-week period, all remaining viable cells were released by trypsinization, diluted 10-fold into PBS, and harvested by centrifugation. The cells were resuspended in fresh H-21 medium, with several aliquots removed for storage and future analysis. […] Nonadherent dead cells were again removed as described above and the process repeated until a drug dose was reached where all cells in the population were killed. Cells that grew at the maximally-tolerated drug concentrations were deemed to be “terminally selected”.\n(§2) Thus, the concentration of valspodar used in some experiments was increased to 10 μM.\n(§3) Briefly, 5 ml of H21 medium with 10% fetal bovine serum was introduced into 12 tissue culture flasks (25 cm^2 area) and each flask seeded with 2.5×10^5 cells. […] Each sample was vortexed vigorously for 10 s to ensure even distribution of cells within the viscous medium. 1.2 ml of each cellular suspension were placed into 6 well plates and incubated for a minimum of one week at 37° C./5% CO2 until large colonies of cells were visible."}, "[2]": {"tested_on": "MCF-7DOX cells", "format": "cell-based", "conditions": "for resistance factor (IC50 for MCF-7DOX cells divided by IC50 for MCF-7 cells): 24 h drug treatment, clonogenic assay", "description": "as §1, §2, §3"}, "[3]": {"tested_on": "MCF-7 cells", "test": "Selection of MCF-7 cells in increasing drug concentrations (maximally tolerated dose)", "format": "cell-based, human", "conditions": "3-fold dose steps, terminally selected", "procedure": "Twice weekly, nonadherent (dead) cells were removed by discarding the existing medium and replacing it with fresh, drug-containing medium. […] At the end of the two-week period, all remaining viable cells were released by trypsinization, diluted 10-fold into PBS, and harvested by centrifugation. The cells were resuspended in fresh H-21 medium, with several aliquots removed for storage and future analysis. The remaining cells were incubated with drug at a concentration 3-fold higher than the previous dose. Nonadherent dead cells were again removed as described above and the process repeated until a drug dose was reached where all cells in the population were killed. Cells that grew at the maximally-tolerated drug concentrations were deemed to be “terminally selected”. The maximally-tolerated drug doses during the selection process were 0.3 μM and 6.6 nM for doxorubicin and paclitaxel, respectively."}, "[4]": {"tested_on": "procaspase-9", "test": "Immunoblotting of whole cell extracts of MCF-7 cells after drug treatment", "format": "cell-based, human", "conditions": "24 h, 9 nM doxorubicin or 0.56 nM paclitaxel", "procedure": "(§4) Extraction of proteins from whole cells was performed using RIPA buffer [1% Nonidet P-40, 0.5% sodium deoxycholate, 0.1% SDS, and 1 Complete™ protease inhibitor tablet (Roche Pharmaceuticals, Baie d'Urfe, QC) in 50 ml of PBS]. Prior to use, the RIPA buffer was supplemented with sodium orthovanadate and phenylmethylsulfonyl fluoride at final concentrations of 1 mM and 0.1 mg/ml, respectively. Cultured cells were grown as a monolayer and allowed to reach 70-90% confluence in 10 cm tissue culture plates. Twenty-four hours prior to extraction, some plates of cells were treated with 9 nM doxorubicin or 0.56 nM paclitaxel. After drug treatment, the medium was removed and the cells rinsed twice with PBS. All further steps were carried out on ice to minimize denaturation/proteolysis of the proteins. Chilled RIPA buffer (0.6 ml) was added to each plate, after which the cells were scraped from the plate using a Teflon tape-coated razor blade, and transferred to a 1.5 ml microfuge tube. An additional 0.3 ml of RIPA buffer was added to the plate and the resultant suspension was combined with the lysate. The sample was then passed repeatedly through a 21 gauge needle to lyse the cells and shear any DNA present. The lysates were then incubated on ice for 30 minutes, after which they were clarified by centrifugation at 15,000 g for 20 minutes at 4° C. The supernatants were then removed, mixed well, and aliquots placed in 0.5 ml microfuge tubes and stored at −80° C.\n(§5) Proteins ([…]) from whole cell extracts were loaded into each lane of a 10% SDS-polyacrylamide gel, on duplicate gels. After electrophoresis, one of the gels was stained with Coomassie Brilliant Blue R to confirm that similar amounts of protein were loaded on gels. A second gel was electrophoretically transferred to a nitrocellulose membrane and the membrane incubated for one hour in blocking buffer [TBS buffer (20 mM Tris, 150 mM NaCl, pH 7.5) supplemented with 5% skim milk powder] to occupy all remaining protein-binding sites on the membrane. After blocking, the membranes were incubated for 1.5 hours at room temperature with an antibody to either caspase-3 (Santa Cruz Biotechnology, Santa Cruz, Calif., clone E-8), caspase-7 (Pharmingen Laboratories, San Diego, Calif., clone B94-1) or caspase-9 (Santa Cruz Biotechnology, Santa Cruz, Calif., clone C-17). Both antibodies were diluted 1:500 in blocking buffer containing 0.1% Tween 20. The primary antibody was then discarded and the membrane washed exhaustively with TBST (TBS buffer supplemented with 0.1% Tween 20). […]"}, "[5]": {"tested_on": "procaspase-7", "test": "Immunoblotting of whole cell extracts of MCF-7 cells after drug treatment", "format": "cell-based, human", "conditions": "24 h drug treatment", "procedure": "as §4, §5"}, "[6]": {"tested_on": "MCF-7 cells", "test": "Clonogenic assay, drug-sensitive parental cells", "conditions": "for IC50: Homo sapiens"}, "[7]": {"tested_on": "MCF-7DOX cells", "test": "[3H]-paclitaxel / [14C]-5-fluorouracil accumulation by liquid scintillation", "conditions": "10 nM paclitaxel, 24 hours"}, "[8]": {"tested_on": "MCF-7DOX cells", "test": "Cellular doxorubicin uptake by flow cytometry", "conditions": "2 μM doxorubicin, steady state"}, "[9]": {"tested_on": "procaspase-9", "test": "Doxorubicin treatment of PA1 ovarian cell line, procaspase-9 level", "format": "cell-based", "conditions": "PA1 cells"}, "[10]": {"tested_on": "MCF-7TAX cells", "conditions": "2 μM doxorubicin"}, "[11]": {"conditions": "MCF7, read-out: IC50 (uptake concentration near the IC50)"}, "[12]": {"conditions": "MCF7, read-out: concentration required to kill 50% of the cells (IC50)"}}, "note": "Values joined by “and” are separate entries in the source; they are usually repeats but may differ in a detail not shown here. Equal entries are not always repeated. Where two headings read alike, the source gives them in different places."}
{"smiles": "CC(=O)O[C@@]12CO[C@@H]1C[C@H](O)[C@@]1(C)C(=O)[C@H](O)C3=C(C)[C@@H](OC(=O)[C@H](O)[C@@H](NC(=O)OC(C)(C)C)c4ccccc4)C[C@@](O)([C@@H](OC(=O)c4ccccc4)[C@H]21)C3(C)C", "note": "[docetaxel]", "values": [{"measurement": "resistance factor (IC50 for MCF-7TAX cells divided by IC50 for MCF-7 cells)", "setting": "[1]", "value": 46, "unit": "fold"}, {"measurement": "resistance factor (IC50 for MCF-7DOX cells divided by IC50 for MCF-7 cells)", "setting": "[2]", "value": "14,600 fold"}]}
{"smiles": "CC(=O)O[C@H]1C(=O)[C@@]2(C)[C@H]([C@H](OC(=O)c3ccccc3)[C@]3(O)C[C@H](OC(=O)[C@H](O)[C@@H](NC(=O)c4ccccc4)c4ccccc4)C(C)=C1C3(C)C)[C@]1(OC(C)=O)CO[C@@H]1C[C@@H]2O", "note": "[paclitaxel]", "values": [{"measurement": "maximally-tolerated drug dose during the selection process", "setting": "[3]", "value": 6.6, "unit": "nM"}, {"measurement": "effect on procaspase-9 levels", "setting": "[4]", "value": "no effect"}, {"measurement": "effect on procaspase-7 levels", "setting": "[5]", "value": "without effect"}, {"measurement": "resistance factor (IC50 for MCF-7TAX cells divided by IC50 for MCF-7 cells)", "setting": "[1]", "value": 42, "unit": "fold"}, {"measurement": "resistance factor (IC50 for MCF-7DOX cells divided by IC50 for MCF-7 cells)", "setting": "[2]", "value": "4,700 fold and > 4,000 fold"}, {"measurement": "IC50", "setting": "[6]; [11]", "value": "~10", "unit": "nM"}, {"measurement": "IC50", "setting": "[6]; [12]", "value": 0.56, "unit": "nM"}, {"measurement": "paclitaxel accumulated as percent of that in MCF-7 cells", "setting": "[7]", "value": 2.5, "unit": "%"}]}
{"smiles": "COc1cc([C@@H]2c3cc4c(cc3[C@@H](O[C@@H]3O[C@@H]5CO[C@@H](C)O[C@H]5[C@H](O)[C@H]3O)[C@H]3COC(=O)[C@H]23)OCO4)cc(OC)c1O", "note": "[etoposide]", "values": [{"measurement": "resistance factor (IC50 for MCF-7TAX cells divided by IC50 for MCF-7 cells)", "setting": "[1]", "value": "Very little to no cross-resistance"}, {"measurement": "resistance factor (IC50 for MCF-7DOX cells divided by IC50 for MCF-7 cells)", "setting": "[2]", "value": 31, "unit": "fold"}]}
{"smiles": "COc1cccc2c1C(=O)c1c(O)c3c(c(O)c1C2=O)C[C@@](O)(C(=O)CO)C[C@@H]3O[C@H]1C[C@H](N)[C@@H](O)[C@H](C)O1", "note": "[epirubicin]", "values": [{"measurement": "resistance factor (IC50 for MCF-7TAX cells divided by IC50 for MCF-7 cells)", "setting": "[1]", "value": "~13", "unit": "fold"}, {"measurement": "resistance factor (IC50 for MCF-7DOX cells divided by IC50 for MCF-7 cells)", "setting": "[2]", "value": 124, "unit": "fold"}]}
{"smiles": "COc1cccc2c1C(=O)c1c(O)c3c(c(O)c1C2=O)C[C@@](O)(C(=O)CO)C[C@@H]3O[C@H]1C[C@H](N)[C@H](O)[C@H](C)O1", "note": "[doxorubicin, Doxorubicin]", "values": [{"measurement": "maximally-tolerated drug dose during the selection process", "setting": "[3]", "value": 300, "unit": "nM"}, {"measurement": "effect on procaspase-9 levels", "setting": "[4]", "value": "elevated levels"}, {"measurement": "effect on procaspase-7 levels", "setting": "[5]", "value": "upregulated"}, {"measurement": "reduction of doxorubicin accumulation compared to MCF-7 cells", "setting": "[8]", "value": 91.4, "unit": "%"}, {"measurement": "resistance factor (IC50 for MCF-7DOX cells divided by IC50 for MCF-7 cells)", "setting": "[2]", "value": 52, "unit": "fold"}, {"measurement": "effect on procaspase-9 levels", "setting": "[9]", "value": "decrease in procaspase-9 levels"}, {"measurement": "IC50", "setting": "[6]; [12]", "value": 9, "unit": "nM"}, {"measurement": "doxorubicin uptake as percent of uptake in MCF-7 cells", "setting": "[10]", "value": 68.6, "unit": "%"}]}
{"smiles": "CC[C@]1(O)C[C@@H]2CN(CCc3c([nH]c4ccccc34)[C@@](C(=O)OC)(c3cc4c(cc3OC)N(C)[C@H]3[C@@](O)(C(=O)OC)[C@H](OC(C)=O)[C@]5(CC)C=CCN6CC[C@]43[C@@H]65)C2)C1", "note": "[vinblastine, Vinblastine]", "values": [{"measurement": "resistance factor (IC50 for MCF-7DOX cells divided by IC50 for MCF-7 cells)", "setting": "[2]", "value": "approximately 4600 fold"}]}
{"smiles": "O=c1[nH]cc(F)c(=O)[nH]1", "note": "[5-fluorouracil]", "values": [{"measurement": "resistance factor (IC50 for MCF-7TAX cells divided by IC50 for MCF-7 cells)", "setting": "[1]", "value": 13, "unit": "fold"}, {"measurement": "IC50", "setting": "[6]; [11]", "value": "~1000", "unit": "nM"}]}
{"smiles": "CCc1c2c(nc3ccc(OC(=O)N4CCC(N5CCCCC5)CC4)cc13)-c1cc3c(c(=O)n1C2)COC(=O)[C@]3(O)CC", "note": "[irinotecan]", "values": [{"measurement": "resistance factor (IC50 for MCF-7TAX cells divided by IC50 for MCF-7 cells)", "setting": "[1]", "value": "Very little to no cross-resistance"}]}
{"smiles": "N.N.[Cl][Pt][Cl]", "note": "[cisplatin]", "values": [{"measurement": "resistance factor (IC50 for MCF-7TAX cells divided by IC50 for MCF-7 cells)", "setting": "[1]", "value": "Very little to no cross-resistance"}]}
{"smiles": "CN(Cc1cnc2nc(N)nc(N)c2n1)c1ccc(C(=O)N[C@@H](CCC(=O)O)C(=O)O)cc1", "note": "[methotrexate]", "values": [{"measurement": "resistance factor (IC50 for MCF-7TAX cells divided by IC50 for MCF-7 cells)", "setting": "[1]", "value": "Very little to no cross-resistance"}]}
{"smiles": "C/C=C/C[C@@H](C)C(=O)[C@H]1C(=O)N[C@@H](C(C)C)C(=O)N(C)CC(=O)N(C)[C@@H](CC(C)C)C(=O)N[C@@H](C(C)C)C(=O)N(C)[C@@H](CC(C)C)C(=O)N[C@@H](C)C(=O)N[C@H](C)C(=O)N(C)[C@@H](CC(C)C)C(=O)N(C)[C@@H](CC(C)C)C(=O)N(C)[C@@H](C(C)C)C(=O)N1C", "note": "[valspodar]", "values": [{"measurement": "concentration tolerated without resulting in cell killing", "setting": "[1]; MCF-7TAX cells", "value": "up to 10 μM"}, {"measurement": "concentration tolerated without resulting in cell killing", "setting": "[2]; MCF-7DOX cells", "value": "up to 10 μM"}, {"measurement": "effect on 5-fluorouracil sensitivity", "setting": "[6]; MCF-7 cells", "value": "no effect"}, {"measurement": "maximum amount which could be added without inducing significant cytotoxicity", "setting": "[6]; MCF-7 cells, one hour at 37° C.", "value": "Two"}, {"measurement": "effect on cell viability", "setting": "[6]; non-expressing MCF-7 cells, 2 μM valspodar (data not shown)", "value": "only a slight effect"}]}
{"smiles": "O=P1(N(CCCl)CCCl)NCCCO1", "note": "(stereo not shown) [cyclophosphamide]", "values": [{"measurement": "resistance factor (IC50 for MCF-7TAX cells divided by IC50 for MCF-7 cells)", "setting": "[1]", "value": "Very little to no cross-resistance"}]}
